For this assay, the target named is p38 (Homo sapiens, UniProt Q16539). Put plainly: Protein Kinase Assay (33P incorporation from γ-[33P]ATP into GST-ATF-2). In kind it is biochemical. Conditions: 2 nM p38, preincubated 20 min at 30° C.; 10 uM cold ATP, 2 uM GST-ATF2, 70 min; read-out: ACT. (Activity), IC50 category in Protein Kinase Assay. The method, boiled down:
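Compounds preincubated 20 min at 30 °C with 2 nM p38; reaction started with 2 uM GST-ATF-2 (aa 19-96) and 10 uM ATP plus γ-[33P]ATP, pH 7.5, 70 min at 30 °C, 2% DMSO. Phosphoric acid stop; 33P-labelled substrate captured on phosphocellulose and counted by scintillation.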

From patent US20100041642A1, “UREA INHIBITORS OF MAP KINASES” (LOCUS PHARMACEUTICALS, INC., priority 2008, published 2010) come the findings set out here.

One may read the IC50 as the point on the concentration scale where inhibition reaches its midpoint.

Sequence of p38 (Q16539 whole entry, the tested form may be a part): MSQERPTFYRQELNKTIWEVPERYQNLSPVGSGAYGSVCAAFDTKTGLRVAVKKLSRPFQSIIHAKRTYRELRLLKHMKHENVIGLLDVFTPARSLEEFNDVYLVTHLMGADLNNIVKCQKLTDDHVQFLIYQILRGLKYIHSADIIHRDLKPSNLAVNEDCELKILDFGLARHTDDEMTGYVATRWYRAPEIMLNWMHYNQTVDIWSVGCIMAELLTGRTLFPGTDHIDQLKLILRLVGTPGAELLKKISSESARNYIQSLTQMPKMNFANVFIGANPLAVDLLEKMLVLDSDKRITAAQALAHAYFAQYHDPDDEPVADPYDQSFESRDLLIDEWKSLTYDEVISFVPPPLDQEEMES

Consider `CC(C)(C)c1cc(C(=O)N2CCNC(=O)C2(C)C)c(NC(=O)Nc2cccc(-c3ccnc(F)c3)c2)s1` [1-(5-tert-butyl-3-(2,2-dimethyl-3-oxopiperazine-1-carbonyl)thiophen-2-yl)-3-(3-(2-fluoropyridin-4-yl)phenyl)urea], for which the IC50 is less than 100 nM. The figure for `Cc1nc(-c2cccc(NC(=O)Nc3sc(C(C)(C)C)cc3C(=O)N3CCNC(=O)C3(C)C)c2)cs1` [1-(5-tert-butyl-3-(2,2-dimethyl-3-oxopiperazine-1-carbonyl)thiophen-2-yl)-3-(3-(2-methylthiazol-4-yl)phenyl)urea] is less than 100 nM; for `Cc1ccc(NC(=O)Nc2sc(C(C)(C)C)cc2C(=O)N2CCNC(=O)C2(C)C)cc1-c1c(C)noc1C` [1-(5-tert-butyl-3-(2,2-dimethyl-3-oxopiperazine-1-carbonyl)thiophen-2-yl)-3-(3-(3,5-dimethylisoxazol-4-yl)-4-methylphenyl)urea] it is less than 100 nM. For `COCCOCC#Cc1cc(NC(=O)Nc2sc(C(C)(C)C)cc2C(=O)N2CCNC(=O)C2(C)C)ccc1C` [1-(5-tert-butyl-3-(2,2-dimethyl-3-oxopiperazine-1-carbonyl)thiophen-2-yl)-3-(3-(3-(2-methoxyethoxy)prop-1-ynyl)-4-methylphenyl)urea] the value was less than 100 nM; for `CN1CCN(c2cccc(NC(=O)Nc3sc(C(C)(C)C)cc3C(=O)N3CCNC(=O)C3(C)C)c2)CC1` [1-(5-tert-butyl-3-(2,2-dimethyl-3-oxopiperazine-1-carbonyl)thiophen-2-yl)-3-(3-(4-methylpiperazin-1-yl)phenyl)urea], less than 10000 nM; for `CCc1ccc(-c2cc(NC(=O)Nc3sc(C(C)(C)C)cc3C(=O)N3CCNC(=O)C3(C)C)ccc2C)nc1` [1-(5-tert-butyl-3-(2,2-dimethyl-3-oxopiperazine-1-carbonyl)thiophen-2-yl)-3-(3-(5-ethylpyridin-2-yl)-4-methylphenyl)urea], less than 100 nM. For `COc1ccc(-c2cc(NC(=O)Nc3sc(C(C)(C)C)cc3C(=O)N3CCNC(=O)C3(C)C)ccc2C)nc1` [1-(5-tert-butyl-3-(2,2-dimethyl-3-oxopiperazine-1-carbonyl)thiophen-2-yl)-3-(3-(5-methoxypyridin-2-yl)-4-methylphenyl)urea] the value was less than 100 nM; for `Cc1ccc(NC(=O)Nc2sc(C(C)(C)C)cc2C(=O)N2CCNC(=O)C2(C)C)cc1-c1ccc(C(C)O)nc1` (centres unmarked) [1-(5-tert-butyl-3-(2,2-dimethyl-3-oxopiperazine-1-carbonyl)thiophen-2-yl)-3-(3-(6-(1-hydroxyethyl)pyridin-3-yl)-4-methylphenyl)urea], less than 100 nM.

`Cc1ccc(NC(=O)Nc2sc(C(C)(C)C)cc2C(=O)N2CCNC(=O)C2(C)C)cc1-c1ccc(OCCN(C)C)nc1` [1-(5-tert-butyl-3-(2,2-dimethyl-3-oxopiperazine-1-carbonyl)thiophen-2-yl)-3-(3-(6-(2-(dimethylamino)ethoxy)pyridin-3-yl)-4-methylphenyl)urea]: the half-inhibitory concentration (IC50) was less than 100 nM. As for `CN(C)CCOc1ccc(-c2cccc(NC(=O)Nc3sc(C(C)(C)C)cc3C(=O)N3CCNC(=O)C3(C)C)c2)cn1` [1-(5-tert-butyl-3-(2,2-dimethyl-3-oxopiperazine-1-carbonyl)thiophen-2-yl)-3-(3-(6-(2-(dimethylamino)ethoxy)pyridin-3-yl)phenyl)urea], the IC50 was less than 100 nM. The figure for `CC(C)(C)c1cc(C(=O)N2CCNC(=O)C2(C)C)c(NC(=O)Nc2cccc(-c3ccc(OCCN4CCOCC4)nc3)c2)s1` [1-(5-tert-butyl-3-(2,2-dimethyl-3-oxopiperazine-1-carbonyl)thiophen-2-yl)-3-(3-(6-(2-morpholinoethoxy)pyridin-3-yl)phenyl)urea] is less than 100 nM.

As to `CN1CCN(CCCOc2ccc(-c3cccc(NC(=O)Nc4sc(C(C)(C)C)cc4C(=O)N4CCNC(=O)C4(C)C)c3)cn2)CC1` [1-(5-tert-butyl-3-(2,2-dimethyl-3-oxopiperazine-1-carbonyl)thiophen-2-yl)-3-(3-(6-(3-(4-methylpiperazin-1-yl)propoxy)pyridin-3-yl)phenyl)urea], the half-maximal inhibitory concentration (IC50) was less than 100 nM. For `Cc1ccc(NC(=O)Nc2sc(C(C)(C)C)cc2C(=O)N2CCNC(=O)C2(C)C)cc1-c1ccc(OCCCN(C)C)nc1` [1-(5-tert-butyl-3-(2,2-dimethyl-3-oxopiperazine-1-carbonyl)thiophen-2-yl)-3-(3-(6-(3-(dimethylamino)propoxy)pyridin-3-yl)-4-methylphenyl)urea] the value was less than 100 nM; for `CN(C)CCCOc1ccc(-c2cccc(NC(=O)Nc3sc(C(C)(C)C)cc3C(=O)N3CCNC(=O)C3(C)C)c2)cn1` [1-(5-tert-butyl-3-(2,2-dimethyl-3-oxopiperazine-1-carbonyl)thiophen-2-yl)-3-(3-(6-(3-(dimethylamino)propoxy)pyridin-3-yl)phenyl)urea], less than 100 nM; for `Cc1ccc(NC(=O)Nc2sc(C(C)(C)C)cc2C(=O)N2CCNC(=O)C2(C)C)cc1-c1ccc(N2CCC(N(C)C)C2)nc1` (centres unmarked) [1-(5-tert-butyl-3-(2,2-dimethyl-3-oxopiperazine-1-carbonyl)thiophen-2-yl)-3-(3-(6-(3-(dimethylamino)pyrrolidin-1-yl)pyridin-3-yl)-4-methylphenyl)urea], less than 100 nM. The figure for `CC(C)(C)c1cc(C(=O)N2CCNC(=O)C2(C)C)c(NC(=O)Nc2cccc(-c3ccc(OCCCc4ccccn4)nc3)c2)s1` [1-(5-tert-butyl-3-(2,2-dimethyl-3-oxopiperazine-1-carbonyl)thiophen-2-yl)-3-(3-(6-(3-(pyridin-2-yl)propoxy)pyridin-3-yl)phenyl)urea] is less than 100 nM. For `CC(C)(C)c1cc(C(=O)N2CCNC(=O)C2(C)C)c(NC(=O)Nc2cccc(-c3ccc(OCCCN4CCOCC4)nc3)c2)s1` [1-(5-tert-butyl-3-(2,2-dimethyl-3-oxopiperazine-1-carbonyl)thiophen-2-yl)-3-(3-(6-(3-morpholinopropoxy)pyridin-3-yl)phenyl)urea] the value was less than 100 nM; for `Cc1ccc(NC(=O)Nc2sc(C(C)(C)C)cc2C(=O)N2CCNC(=O)C2(C)C)cc1-c1ccc(N(C)C)nc1` [1-(5-tert-butyl-3-(2,2-dimethyl-3-oxopiperazine-1-carbonyl)thiophen-2-yl)-3-(3-(6-(dimethylamino)pyridin-3-yl)-4-methylphenyl)urea], less than 100 nM; for `Cc1ccc(NC(=O)Nc2sc(C(C)(C)C)cc2C(=O)N2CCNC(=O)C2(C)C)cc1-c1ccc(NCC(C)C)nc1` [1-(5-tert-butyl-3-(2,2-dimethyl-3-oxopiperazine-1-carbonyl)thiophen-2-yl)-3-(3-(6-(isobutylamino)pyridin-3-yl)-4-methylphenyl)urea], less than 100 nM.

As to `CC(=O)c1ccc(-c2cc(NC(=O)Nc3sc(C(C)(C)C)cc3C(=O)N3CCNC(=O)C3(C)C)ccc2C)cn1` [1-(5-tert-butyl-3-(2,2-dimethyl-3-oxopiperazine-1-carbonyl)thiophen-2-yl)-3-(3-(6-ethanoylpyridin-3-yl)-4-methylphenyl)urea], the concentration for half-maximal inhibition (IC50) is less than 100 nM. The figure for `CCc1ccc(-c2cc(NC(=O)Nc3sc(C(C)(C)C)cc3C(=O)N3CCNC(=O)C3(C)C)ccc2C)cn1` [1-(5-tert-butyl-3-(2,2-dimethyl-3-oxopiperazine-1-carbonyl)thiophen-2-yl)-3-(3-(6-ethylpyridin-3-yl)-4-methylphenyl)urea] is less than 100 nM. For `CCc1ccc(-c2cc(NC(=O)Nc3sc(C(C)(C)C)cc3C(=O)N3CCNC(=O)C3(C)C)cc(F)c2C)cn1` [1-(5-tert-butyl-3-(2,2-dimethyl-3-oxopiperazine-1-carbonyl)thiophen-2-yl)-3-(3-(6-ethylpyridin-3-yl)-5-fluoro-4-methylphenyl)urea] the value was less than 100 nM; for `C#Cc1ccc(-c2cc(NC(=O)Nc3sc(C(C)(C)C)cc3C(=O)N3CCNC(=O)C3(C)C)ccc2C)cn1` [1-(5-tert-butyl-3-(2,2-dimethyl-3-oxopiperazine-1-carbonyl)thiophen-2-yl)-3-(3-(6-ethynylpyridin-3-yl)-4-methylphenyl)urea], less than 100 nM; for `Cc1ccc(NC(=O)Nc2sc(C(C)(C)C)cc2C(=O)N2CCNC(=O)C2(C)C)cc1-c1ccc(F)nc1` [1-(5-tert-butyl-3-(2,2-dimethyl-3-oxopiperazine-1-carbonyl)thiophen-2-yl)-3-(3-(6-fluoropyridin-3-yl)-4-methylphenyl)urea], less than 100 nM. On to `Cc1ccc(NC(=O)Nc2sc(C(C)(C)C)cc2C(=O)N2CCNC(=O)C2(C)C)cc1-c1ccc(C(C)C)nc1` [1-(5-tert-butyl-3-(2,2-dimethyl-3-oxopiperazine-1-carbonyl)thiophen-2-yl)-3-(3-(6-isopropylpyridin-3-yl)-4-methylphenyl)urea], for which the IC50 is less than 100 nM.

For `COc1ccc(-c2cc(NC(=O)Nc3sc(C(C)(C)C)cc3C(=O)N3CCNC(=O)C3(C)C)ccc2C)cn1` [1-(5-tert-butyl-3-(2,2-dimethyl-3-oxopiperazine-1-carbonyl)thiophen-2-yl)-3-(3-(6-methoxypyridin-3-yl)-4-methylphenyl)urea], the concentration for half-maximal inhibition (IC50) is less than 100 nM. The figure for `COc1ccc(-c2cc(C)cc(NC(=O)Nc3sc(C(C)(C)C)cc3C(=O)N3CCNC(=O)C3(C)C)c2)cn1` [1-(5-tert-butyl-3-(2,2-dimethyl-3-oxopiperazine-1-carbonyl)thiophen-2-yl)-3-(3-(6-methoxypyridin-3-yl)-5-methylphenyl)urea] is less than 100 nM.

Regarding `CC(C)(C)c1cc(C(=O)N2CCNC(=O)C2(C)C)c(NC(=O)Nc2cccc(-c3cnco3)c2)s1` [1-(5-tert-butyl-3-(2,2-dimethyl-3-oxopiperazine-1-carbonyl)thiophen-2-yl)-3-(3-(oxazol-5-yl)phenyl)urea], the 50% inhibitory concentration (IC50) is less than 100 nM. For `CC(C)(C)c1cc(C(=O)N2CCNC(=O)C2(C)C)c(NC(=O)Nc2cccc(-c3cccnc3)c2)s1` [1-(5-tert-butyl-3-(2,2-dimethyl-3-oxopiperazine-1-carbonyl)thiophen-2-yl)-3-(3-(pyridin-3-yl)phenyl)urea] the value was less than 100 nM.
